Values after ≈ are worked out from the molar mass of the structure shown.
What was measured:
[1] = system: Bacillus subtilis ATCC6633; assay: MIC, twofold agar dilution; format: cell-based; conditions: Gram +, 10^6 cells/ml, 18 hrs, 37° C., read-out: Minimum inhibitory concentration (MIC)
Description: (§1) Minimum inhibitory concentrations (MIC) were determined by the twofold agar dilution method (Chemotherapy, 29(1), 76(1981)). Overnight cultures in Mueller-Hinton broth were suspended by buffered saline gelatine. One loopful of the bacterial suspension (10^6 or 10^8 colony-forming units/ml) was incubated onto the test compound-containing plates. The plates were incubated for 18 hrs. at 37° C. The MIC was the lowest concentration of the drug that inhibited visible growth.

Proteus vulgalis OX-19 = assay: MIC, twofold agar dilution; format: cell-based; conditions: Gram -; 10^6 cells/ml; 18 hrs, 37° C.; read-out: Minimum inhibitory concentration (MIC)
Description: as §1

[2] = system: Staphylococcus aureus FAD208PJC-1; assay: MIC, twofold agar dilution; format: cell-based; conditions: FAD208PJC1, Gram +, 10^6 cells/ml, 18 hrs, 37° C., read-out: Minimum inhibitory concentration (MIC)
Description: as §1

[3] = system: Enterobacter cloaceas 963; assay: MIC, twofold agar dilution; format: cell-based; conditions: Gram -, 10^6 cells/ml, 18 hrs, 37° C., read-out: Minimum inhibitory concentration (MIC)
Description: as §1

[4] = system: Serratia marcescens IAM1184; assay: MIC, twofold agar dilution; format: cell-based; conditions: Gram -, 10^6 cells/ml, 18 hrs, 37° C., read-out: Minimum inhibitory concentration (MIC)
Description: as §1

[5] = system: Streptococcus pyogenes Cook; assay: MIC, twofold agar dilution; format: cell-based; conditions: Gram +, 10^6 cells/ml, 18 hrs, 37° C., read-out: Minimum inhibitory concentration (MIC)
Description: as §1

[6] = system: Proteus mirabilis IFO3849; assay: MIC, twofold agar dilution; format: cell-based; conditions: Gram -, 10^6 cells/ml, 18 hrs, 37° C., read-out: Minimum inhibitory concentration (MIC)
Description: as §1

[7] = system: Staphylococcus aureus Terajima; assay: MIC, twofold agar dilution; format: cell-based; conditions: Gram +, 10^6 cells/ml, 18 hrs, 37° C., read-out: Minimum inhibitory concentration (MIC)
Description: as §1

Proteus morganii IFO3848 = assay: MIC, twofold agar dilution; format: cell-based; conditions: Morganella morganii, Gram -, 10^6 cells/ml, 18 hrs, 37° C., read-out: Minimum inhibitory concentration (MIC)
Description: as §1

[8] = system: Pseudomonas aeruginosa PAO7; assay: MIC, twofold agar dilution; format: cell-based; conditions: Gram -, 10^6 cells/ml, 18 hrs, 37° C., read-out: Minimum inhibitory concentration (MIC)
Description: as §1

[9] = system: Salmonella typhimurium IID 971; assay: MIC, twofold agar dilution; format: cell-based; conditions: Salmonella enterica; Gram -; 10^6 cells/ml; 18 hrs, 37° C.; read-out: Minimum inhibitory concentration (MIC)
Description: as §1

[10] = system: Pseudomonas aeruginosa IFO3445; assay: MIC, twofold agar dilution; format: cell-based; conditions: Gram -, 10^6 cells/ml, 18 hrs, 37° C., read-out: Minimum inhibitory concentration (MIC)
Description: as §1

[11] = system: Escherichia coli NIHJ-JC-2; assay: MIC, twofold agar dilution; format: cell-based; conditions: NIHJJC2, Gram -, 10^6 cells/ml, 18 hrs, 37° C., read-out: Minimum inhibitory concentration (MIC)
Description: as §1

[12] = system: Salmonella schottmulleri 0006; assay: MIC, twofold agar dilution; format: cell-based; conditions: Gram -, 10^6 cells/ml, 18 hrs, 37° C., read-out: Minimum inhibitory concentration (MIC)
Description: as §1

[13] = system: Klebsiella pneumoniae PCI-602; assay: MIC, twofold agar dilution; format: cell-based; conditions: PCI602, Gram -, 10^6 cells/ml, 18 hrs, 37° C., read-out: Minimum inhibitory concentration (MIC)
Description: as §1

[14] = system: Escherichia coli K-12 C600; assay: MIC, twofold agar dilution; format: cell-based; conditions: K12C600, Gram -, 10^6 cells/ml, 18 hrs, 37° C., read-out: Minimum inhibitory concentration (MIC)
Description: as §1

Proteus vulgalis HX-19 = assay: MIC, twofold agar dilution; format: cell-based; conditions: Gram -; 10^6 cells/ml; 18 hrs, 37° C.; read-out: Minimum inhibitory concentration (MIC)
Description: as §1

[15] = system: Enterobacter aerogenes ATCC13048; assay: MIC, twofold agar dilution; format: cell-based; conditions: Klebsiella aerogenes, Gram -, 10^6 cells/ml, 18 hrs, 37° C., read-out: Minimum inhibitory concentration (MIC)
Description: as §1

[16] = system: Staphylococcus aureus MS-353; assay: MIC, twofold agar dilution; format: cell-based; conditions: MS353, Gram +, 10^6 cells/ml, 18 hrs, 37° C., read-out: Minimum inhibitory concentration (MIC)
Description: as §1

[17] = system: Pseudomonas aeruginosa NCTC10490; assay: MIC, twofold agar dilution; format: cell-based; conditions: Gram -, 10^6 cells/ml, 18 hrs, 37° C., read-out: Minimum inhibitory concentration (MIC)
Description: as §1

Proteus rettgeri IFO3850 = assay: MIC, twofold agar dilution; format: cell-based; conditions: Providencia rettgeri, Gram -, 10^6 cells/ml, 18 hrs, 37° C., read-out: Minimum inhibitory concentration (MIC)
Description: as §1

[18] = system: Micrococcus luteus ATCC9341; assay: MIC, twofold agar dilution; format: cell-based; conditions: Gram +, 10^6 cells/ml, 18 hrs, 37° C., read-out: Minimum inhibitory concentration (MIC)
Description: as §1

[19] = system: Salmonella enteritidis G14; assay: MIC, twofold agar dilution; format: cell-based; conditions: Salmonella enterica, Gram -, 10^6 cells/ml, 18 hrs, 37° C., read-out: Minimum inhibitory concentration (MIC)
Description: as §1

[20] = system: Pseudomonas aeruginosa ATCC9027; assay: MIC, twofold agar dilution; format: cell-based; conditions: Gram -, 10^6 cells/ml, 18 hrs, 37° C., read-out: Minimum inhibitory concentration (MIC)
Description: as §1

Salmonella typhi 901 = assay: MIC, twofold agar dilution; format: cell-based; conditions: Salmonella enterica, 18 h, read-out: Minimum inhibitory concentration (MIC)
Description: as §1

[21] = system: Salmonella paratyphi 1015; assay: MIC, twofold agar dilution; format: cell-based; conditions: Salmonella enterica, 18 h, read-out: Minimum inhibitory concentration (MIC)
Description: as §1

[22] = Urinary excretion in rats after oral dosing (bioassay with Escherichia coli NIHJ-JC-2); format: in vivo, SD strain); conditions: rat, male SD rats, 20 mg/Kg per os, fasted 24 hr
Description: Male rats of SD strain, weighing 180-210 g, were used 8 animals at a group. Test compounds suspended in 0.5% carboxymethyl cellulose were administered per os to 24 hr-fasted rats at dose of 20 mg/Kg. Urine was pooled from 0 to 6 hrs. and 6 to 24 hrs, and urinary excretion was measured by bioassay using Escherichia coli NIHJ-JC-2.
The assay method employed was the cup-plate method using
Escherichia coli NIHJ-JC-2. Urine was appropriately diluted with 1/15M phosphate buffer pH7.0, before assay if necessary. Standard calibration lines were made in 1/15M phosphate buffer pH7.0.

| Compound | MIC [1] [µg/mL] | MIC (Proteus vulgalis OX-19) [µg/mL] | MIC [2] [µg/mL] | MIC [3] [µg/mL] | MIC [4] [µg/mL] | MIC [5] [µg/mL] | MIC [6] [µg/mL] | MIC [7] [µg/mL] | MIC (Proteus morganii IFO3848) [µg/mL] | MIC [8] [µg/mL] | MIC [9] [µg/mL] | MIC [10] [µg/mL] | MIC [11] [µg/mL] | MIC [12] [µg/mL] | MIC [13] [µg/mL] | MIC [14] [µg/mL] | MIC (Proteus vulgalis HX-19) [µg/mL] | MIC [15] [µg/mL] | MIC [16] [µg/mL] | MIC [17] [µg/mL] | other results |
| --- | --- | --- | --- | --- | --- | --- | --- | --- | --- | --- | --- | --- | --- | --- | --- | --- | --- | --- | --- | --- | --- |
| CC1CN(c2c(F)cc3c(=O)c(C(=O)O)cn(CCF)c3c2F)CCN1 (stereo not drawn) [Example 16, 6,8-Difluoro-1-(2-fluoroethyl)-1,4-dihydro-7-(3-methyl-1-piperazinyl)-4-oxoquinoline-3-carboxylic acid] | 0.2 (≈ 0.542 µM) | 0.2 (≈ 0.542 µM) | 0.38 (≈ 1.03 µM) | 0.2 (≈ 0.542 µM) | 0.2 (≈ 0.542 µM) | 3.13 (≈ 8.47 µM) | 0.39 (≈ 1.06 µM) | 0.78 (≈ 2.11 µM) | 0.05 (≈ 0.135 µM) | 1.56 (≈ 4.22 µM) | 0.2 (≈ 0.542 µM) | 0.78 (≈ 2.11 µM) | 0.1 (≈ 0.271 µM) | 0.1 (≈ 0.271 µM) | 0.023 (≈ 0.0623 µM) | 0.2 (≈ 0.542 µM) | 0.05 (≈ 0.135 µM) | 0.2 (≈ 0.542 µM) | 1.56 (≈ 4.22 µM) | 0.38 (≈ 1.03 µM) | MIC (Proteus rettgeri IFO3850): 0.2 µg/mL (≈ 0.542 µM); MIC [18]: 6.25 µg/mL (≈ 16.9 µM); MIC [19]: 0.2 µg/mL (≈ 0.542 µM); MIC [20]: 0.1 µg/mL (≈ 0.271 µM); MIC (Salmonella typhi 901): 0.1 µg/mL (≈ 0.271 µM); MIC [21]: 0.05 µg/mL (≈ 0.135 µM); concentration at 6 h ([22]; urine 0-6 hr, read-out: Drug Concentration in Urine 0-6 (hr)): 344 µg/mL; dose excreted at 24 h ([22]; urine 0-24 hr, read-out: Rate of Urinary Excretion 0-24 (hr)): 41%; concentration at 24 h ([22]; urine 6-24 hr, read-out: Drug Concentration in Urine 6-24 (hr)): 46 µg/mL |
| CCn1cc(C(=O)O)c(=O)c2cc(F)c(N3CC(C)NC(C)C3)c(F)c21 (stereo not drawn) [Example 20] | 0.2 (≈ 0.547 µM) | 0.1 (≈ 0.274 µM) | 0.78 (≈ 2.13 µM) | 0.2 (≈ 0.547 µM) | 0.78 (≈ 2.13 µM) | 6.25 (≈ 17.1 µM) | 1.56 (≈ 4.27 µM) | 1.56 (≈ 4.27 µM) | 0.2 (≈ 0.547 µM) | 3.13 (≈ 8.57 µM) | 0.2 (≈ 0.547 µM) | 3.13 (≈ 8.57 µM) | 0.39 (≈ 1.07 µM) | 0.1 (≈ 0.274 µM) | 0.2 (≈ 0.547 µM) | 0.2 (≈ 0.547 µM) | 0.2 (≈ 0.547 µM) | 0.2 (≈ 0.547 µM) | 1.56 (≈ 4.27 µM) | 0.78 (≈ 2.13 µM) | MIC (Proteus rettgeri IFO3850): 0.39 µg/mL (≈ 1.07 µM); MIC [18]: 12.5 µg/mL (≈ 34.2 µM); MIC [19]: 0.39 µg/mL (≈ 1.07 µM); MIC [20]: 0.2 µg/mL (≈ 0.547 µM); MIC (Salmonella typhi 901): 0.1 µg/mL (≈ 0.274 µM); MIC [21]: 0.1 µg/mL (≈ 0.274 µM) |
| CCn1cc(C(=O)O)c(=O)c2cc(F)c(N3CCNCC3)cc21 [Reference Drug, norfloxacin, reference compound] | 0.1 (≈ 0.313 µM) | 0.05 (≈ 0.157 µM) | 0.2 (≈ 0.626 µM) | 0.05 (≈ 0.157 µM) | 0.1 (≈ 0.313 µM) | 1.56 (≈ 4.89 µM) | 0.1 (≈ 0.313 µM) | 0.39 (≈ 1.22 µM) | 0.025 (≈ 0.0783 µM) | 0.39 (≈ 1.22 µM) | 0.05 (≈ 0.157 µM) | 0.78 (≈ 2.44 µM) | 0.05 (≈ 0.157 µM) | 0.025 (≈ 0.0783 µM) | 0.025 (≈ 0.0783 µM) | 0.05 (≈ 0.157 µM) | 0.025 (≈ 0.0783 µM) | 0.1 (≈ 0.313 µM) | 6.25 (≈ 19.6 µM) | 0.78 (≈ 2.44 µM) | MIC (Proteus rettgeri IFO3850): 0.05 µg/mL (≈ 0.157 µM); MIC [18]: 6.25 µg/mL (≈ 19.6 µM); MIC [19]: 0.05 µg/mL (≈ 0.157 µM); MIC [20]: 0.05 µg/mL (≈ 0.157 µM); MIC (Salmonella typhi 901): 0.025 µg/mL (≈ 0.0783 µM); MIC [21]: 0.025 µg/mL (≈ 0.0783 µM) |

Reference: patent publication US4528287A, “6-Fluoro-1, 4-dihydro-4-oxo-7-substituted piperazinylquinoline-3-carboxylic acids and the method for preparing the same” (priority 1983, dated 1985)
